Experimental data from ChEMBL document CHEMBL4840359, “N-Terminus to Arginine Side-Chain Cyclization of Linear Peptidic Neuropeptide Y Y4 Receptor Ligands Results in Picomolar Binding Constants” (J Med Chem, 2021).
The source made the active and inactive calls. No cut-off for these calls is given here. Starred links: 1 amine or outer side, 2 acyl side, 3 side chain; linkers in the order of their positions; H or OH if unused. Residues, ends and D or L forms follow the SMILES beside them. Groups on a side chain read outwards from the residue. *: point of attachment. Suc = O=C(CCC(=O)[*:2])[*:1]; CO = O=C([*:1])[*:2]; NH(CH2)3NH2 = NCCCN*

Experiments:
[1] = Stability in human plasma assessed as intact peptide measured after 30 mins at 37 degC by RP-HPLC analysis; assay type: ADME, cell-free; conditions: read-out: Stability
[2] = Stability in human plasma assessed as intact peptide measured after 1 hr at 37 degC by RP-HPLC analysis; assay type: ADME, cell-free; conditions: read-out: Stability
[3] = Stability in human plasma assessed as intact peptide measured after 2 hr at 37 degC by RP-HPLC analysis; assay type: ADME, cell-free; conditions: read-out: Stability
[4] = Stability in human plasma assessed as intact peptide measured after 6 hr at 37 degC by RP-HPLC analysis; assay type: ADME, cell-free; conditions: read-out: Stability
[5] = Stability in human plasma assessed as half life at 37 degC by RP-HPLC analysis; assay type: ADME, cell-free
[6] = target: T1, Neuropeptide Y receptor type 4 (Homo sapiens, UniProt P50391); experiment: Displacement of [3H]UR-KK200 from human neuropeptide Y Y4 receptor expressed in CHO-mtAEQ cells co-expressing Gqi5 measured after 90 mins by scintillation counting analysis; assay type: cell-based
[7] = target: T1, Neuropeptide Y receptor type 4; experiment: Displacement of [3H]UR-KK200 from human neuropeptide Y Y4 receptor expressed in CHO-mtAEQ cells co-expressing Gqi5 assessed as fold change in affinity measured after 90 mins by scintillation counting analysis relative to Ac-Arg-Tyr-Arg-Leu-Arg-Tyr-NH2; assay type: cell-based; conditions: filed as agonist
[8] = target: T2, Neuropeptide Y receptor type 1 (Homo sapiens, UniProt P25929); experiment: Displacement of [3H]UR-MK299 from human neuropeptide Y Y1 receptor in human SK-N-MC cells measured after 90 mins by scintillation counting analysis; assay type: cell-based
T2 sequence (P25929 whole entry): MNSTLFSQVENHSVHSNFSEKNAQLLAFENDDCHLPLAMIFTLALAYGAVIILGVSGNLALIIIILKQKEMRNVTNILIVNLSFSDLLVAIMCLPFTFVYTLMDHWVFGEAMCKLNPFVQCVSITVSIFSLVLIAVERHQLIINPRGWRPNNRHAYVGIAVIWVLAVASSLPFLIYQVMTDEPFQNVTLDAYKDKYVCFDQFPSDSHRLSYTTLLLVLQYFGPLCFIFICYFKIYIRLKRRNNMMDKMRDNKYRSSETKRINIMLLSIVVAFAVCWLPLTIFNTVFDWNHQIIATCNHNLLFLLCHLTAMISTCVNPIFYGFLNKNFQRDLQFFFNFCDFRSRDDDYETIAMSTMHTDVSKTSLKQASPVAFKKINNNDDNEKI

[9] = target: T3, Neuropeptide Y receptor type 2 (Homo sapiens, UniProt P49146); experiment: Displacement of [3H]UR-MK299 from human neuropeptide Y Y2 receptor expressed in CHO cells measured after 90 mins by scintillation counting analysis; assay type: cell-based
T3 sequence (P49146 whole entry): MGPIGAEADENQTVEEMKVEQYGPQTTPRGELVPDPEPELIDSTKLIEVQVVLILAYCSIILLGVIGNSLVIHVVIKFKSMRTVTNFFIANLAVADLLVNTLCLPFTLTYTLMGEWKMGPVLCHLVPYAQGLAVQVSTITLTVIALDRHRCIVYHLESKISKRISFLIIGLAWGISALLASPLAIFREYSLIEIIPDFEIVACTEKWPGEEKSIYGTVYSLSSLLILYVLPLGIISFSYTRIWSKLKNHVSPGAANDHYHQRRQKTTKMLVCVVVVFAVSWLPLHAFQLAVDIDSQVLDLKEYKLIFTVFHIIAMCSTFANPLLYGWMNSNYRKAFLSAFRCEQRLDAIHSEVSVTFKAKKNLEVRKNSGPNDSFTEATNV

[10] = target: T4, Neuropeptide Y receptor type 5 (Homo sapiens, UniProt Q15761); experiment: Displacement of [3H]propionyl-pNPY from human neuropeptide Y Y5 receptor in human HEC-1B cells measured after 90 mins by scintillation counting analysis; assay type: cell-based, HEC-1B cell line
T4 sequence (Q15761 whole entry): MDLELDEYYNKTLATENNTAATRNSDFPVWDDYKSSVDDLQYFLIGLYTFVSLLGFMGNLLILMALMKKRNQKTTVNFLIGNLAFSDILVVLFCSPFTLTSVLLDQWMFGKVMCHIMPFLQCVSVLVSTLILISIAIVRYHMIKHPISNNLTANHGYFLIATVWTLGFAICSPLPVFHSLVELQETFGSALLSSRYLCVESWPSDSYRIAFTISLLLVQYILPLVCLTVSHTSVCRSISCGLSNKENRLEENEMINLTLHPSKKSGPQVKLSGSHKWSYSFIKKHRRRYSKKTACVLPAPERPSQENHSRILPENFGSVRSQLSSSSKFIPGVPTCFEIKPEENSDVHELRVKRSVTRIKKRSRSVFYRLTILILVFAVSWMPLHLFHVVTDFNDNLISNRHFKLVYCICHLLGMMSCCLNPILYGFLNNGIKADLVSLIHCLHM

[11] = species: Homo sapiens; experiment: (§1) Selectivity ratio, Ki for displacement of [3H]UR-MK299 from human neuropeptide Y Y1 receptor in human SK-N-MC cells measured after 90 mins by scintillation counting analysis to Ki for displacement of [3H]UR-KK200 from human neuropeptide Y Y4 receptor expressed in CHO-mtAEQ cells co-expressing Gqi5 measured after 90 mins by scintillation counting analysis; assay type: cell-based
[12] = species: Homo sapiens; experiment: Selectivity ratio, Ki for displacement of [3H]UR-MK299 from human neuropeptide Y Y2 receptor expressed in CHO cells measured after 90 mins by scintillation counting analysis to Ki for displacement of [3H]UR-KK200 from human neuropeptide Y Y4 receptor expressed in CHO-mtAEQ cells co-expressing Gqi5 measured after 90 mins by scintillation counting analysis; assay type: cell-based
[13] = species: Homo sapiens; experiment: as §1, with “[3H]propionyl-pNPY” for “[3H]UR-MK299”, “Y5” for “Y1”, “HEC-1B” for “SK-N-MC”; assay type: cell-based
[14] = target: T1, Neuropeptide Y receptor type 4; experiment: Agonist activity at human neuropeptide Y Y4 receptor expressed in HEK293T-ARRB1 cells assessed as stimulation of beta-arrestin 1 recruitment by multimode plate reader; assay type: functional, cell-based
[15] = target: T1, Neuropeptide Y receptor type 4; experiment: Intrinsic activity at human neuropeptide Y Y4 receptor expressed in HEK293T-ARRB1 cells assessed as stimulation of beta-arrestin 1 recruitment by multimode plate reader relative to hPP; assay type: functional, cell-based
[16] = target: T1, Neuropeptide Y receptor type 4; experiment: Agonist activity at human neuropeptide Y Y4 receptor expressed in HEK293T-ARRB2 cells assessed as stimulation of beta-arrestin 2 recruitment by multimode plate reader; assay type: functional, cell-based
[17] = target: T1, Neuropeptide Y receptor type 4; experiment: Intrinsic activity at human neuropeptide Y Y4 receptor expressed in HEK293T-ARRB2 cells assessed as stimulation of beta-arrestin 2 recruitment by multimode plate reader relative to hPP; assay type: functional, cell-based
[18] = target: T1, Neuropeptide Y receptor type 4; experiment: Agonist activity at human neuropeptide Y Y4 receptor expressed in CHO-mtAEQ cells co-expressing Gqi5 by calcium aequorin assay; assay type: functional, cell-based
[19] = target: T1, Neuropeptide Y receptor type 4; experiment: Intrinsic activity at human neuropeptide Y Y4 receptor expressed in CHO-mtAEQ cells co-expressing Gqi5 by calcium aequorin assay; assay type: functional, cell-based

T1 sequence (P50391 whole entry): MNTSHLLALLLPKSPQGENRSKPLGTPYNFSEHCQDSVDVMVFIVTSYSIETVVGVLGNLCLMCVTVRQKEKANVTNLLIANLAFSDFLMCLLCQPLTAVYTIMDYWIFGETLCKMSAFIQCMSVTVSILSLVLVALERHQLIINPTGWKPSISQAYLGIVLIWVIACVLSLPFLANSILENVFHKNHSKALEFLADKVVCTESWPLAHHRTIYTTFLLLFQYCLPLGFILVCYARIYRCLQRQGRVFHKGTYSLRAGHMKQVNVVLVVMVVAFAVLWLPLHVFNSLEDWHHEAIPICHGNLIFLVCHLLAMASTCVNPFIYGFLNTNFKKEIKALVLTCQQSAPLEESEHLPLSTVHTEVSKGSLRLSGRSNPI

SMILES	Ki ([6]; read-out: Ki) [nM]	fold change (FC) [7]	Ki ([8]; read-out: Ki) [nM]	Ki ([8]; read-out: pKi (converted)) [nM]	Ki ([9]; read-out: Ki) [nM]	Ki ([9]; read-out: pKi (converted)) [nM]	Ki ([10]; hec-1b cell line, read-out: Ki) [nM]	Ki ([10]; read-out: pKi (converted)) [nM]	Selectivity ratio [11]	Selectivity ratio [12]	Selectivity ratio [13]	EC50 ([14]; read-out: pEC50 (converted)) [nM]	Intrinsic activity [15]	EC50 [16] [nM]	Intrinsic activity [17]	EC50 [18] [nM]	Intrinsic activity [19]	Ki ([6]; read-out: pKi (converted)) [nM]	Ki ([10]; read-out: Ki) [nM]	EC50 ([14]; read-out: EC50) [nM]	other results
CC(=O)N[C@@H](CCCNC(=N)N)C(=O)N[C@@H](Cc1ccc(O)cc1)C(=O)N[C@@H](CCCN/C(N)=N/C(=O)NCCCCN)C(=O)N[C@@H](CC(C)C)C(=O)N[C@@H](CCCNC(=N)N)C(=O)N[C@@H](Cc1ccc(O)cc1)C(N)=O (HELM PEPTIDE1{[ac].R.Y.[NCCCCNC(=O)/N=C(\N)NCCC[C@H](N[*:1])C(=O)[*:2]].L.R.Y.[am]}$$$$V2.0)																					remaining at 0.5 h [1]: > 99%; remaining at 1 h [2]: 77%; remaining at 2 h [3]: 38%; remaining at 6 h [4]: 9%; half-life [5]: 1.7 h
N=C(N)NCCC[C@H](NC(=O)CCC(=O)O)C(=O)N[C@@H](Cc1ccc(O)cc1)C(=O)N[C@@H](CCCNC(=N)NC(=O)NCCCCN)C(=O)N[C@@H](Cc1c[nH]c2ccccc12)C(=O)N[C@@H](CCCNC(=N)N)C(=O)N[C@@H](Cc1ccc(O)cc1)C(N)=O (single isomer, unassigned)	50	-15	> 3000	> 3160	> 3000	> 3160	> 10000	> 10000	> 60	> 60	> 200	85.1	inactive	145	inactive	75.9	inactive				
CC(C)C[C@H](NC(=O)[C@@H]1CCC(=O)NCC(=O)N[C@H](CCCNC(=N)N)C(=O)N[C@@H](CCCNC(=N)N)C(=O)N1)C(=O)N[C@@H](CCCNC(=N)N)C(=O)N[C@@H](Cc1ccc(O)cc1)C(N)=O	30	-8.8	> 3000	> 3160	> 3000	> 3160		> 3160	> 100	> 100	> 100	> 10000	inactive	> 10000	inactive	> 10000	inactive	28.8	> 3000		
N=C(N)NCCC[C@H](NC(=O)CCC(=O)O)C(=O)N[C@@H](Cc1ccc(O)cc1)C(=O)N[C@@H](CCCNC(=N)NC(=O)NCCCN)C(=O)N[C@@H](Cc1c[nH]c2ccccc12)C(=O)N[C@@H](CCCNC(=N)N)C(=O)N[C@@H](Cc1ccc(O)cc1)C(N)=O (Suc-RYR([CO-NH(CH2)3NH2])WRY-NH2)	63	-19		> 10000	> 3000	> 3160		> 3160	> 150	> 47	> 47	123	inactive	89.1	inactive	91.2	inactive	56.2	> 3000		
CC(C)C[C@H](NC(=O)[C@H](CCCNC(=N)NC(=O)NCCCN)NC(=O)[C@H](Cc1ccc(O)cc1)NC(=O)[C@H](CCCNC(=N)N)NC(=O)CCC(=O)O)C(=O)N[C@@H](CCCNC(=N)N)C(=O)N[C@@H](Cc1ccc(O)cc1)C(N)=O	0.66	5.2		> 10000	> 10000	> 10000	> 10000	> 10000	> 15000	> 15000	> 15000		61%	129	71%	178	65%	0.646		50	
CC(C)C[C@H](NC(=O)[C@H](CCCNC(=N)N)NC(=O)[C@@H]1CCC(=O)N[C@@H](CCCNC(=N)N)C(=O)NCC(=O)N[C@@H](Cc2ccc(O)cc2)C(=O)N1)C(=O)N[C@@H](CCCNC(=N)N)C(=O)N[C@@H](Cc1ccc(O)cc1)C(N)=O (HELM PEPTIDE1{R.G.Y.E.R.L.R.Y.[am]}$PEPTIDE1,PEPTIDE1,1:R1-4:R3$$$V2.0)	2.5	1.4	760	457	> 10000	> 10000		> 3160	300	> 4000	> 1200		64%	178	74%	676	48%		> 3000	290	
N=C(N)NCCC[C@@H]1NC(=O)CCC(=O)NCCCCNC(=O)NC(=N)NCCC[C@@H](C(=O)N[C@@H](Cc2c[nH]c3ccccc23)C(=O)N[C@@H](CCCNC(=N)N)C(=O)N[C@@H](Cc2ccc(O)cc2)C(N)=O)NC(=O)[C@H](Cc2ccc(O)cc2)NC1=O (HELM PEPTIDE1{R.Y.[N=C(NCCC[C@H](N[*:1])C(=O)[*:2])N[*:3]].W.R.Y.[am]}|CHEM1{[O=C(CCC(=O)[*:1])NCCCCNC(=O)[*:2]]}$PEPTIDE1,CHEM1,1:R1-1:R1|PEPTIDE1,CHEM1,3:R3-1:R2$$$V2.0)	1.6	2.1	> 3000	> 10000	> 10000	> 10000	> 10000	> 10000	> 1800	> 6200	> 6200		84%	95.5	83%	191	61%			130	
CC(C)C[C@H](NC(=O)[C@@H]1CCCNC(=N)NC(=O)NCCCNC(=O)CCC(=O)N[C@@H](CCCNC(=N)N)C(=O)N[C@@H](Cc2ccc(O)cc2)C(=O)N1)C(=O)N[C@@H](CCCNC(=N)N)C(=O)N[C@@H](Cc1ccc(O)cc1)C(N)=O	0.13	26		> 10000	> 3000	> 3160		> 1000	> 76000	> 23000	> 23000		90%	5.37	87%	15.1	83%	0.117	> 3000	3.5	
